From patent US20250145665A1, “MACROCYCLIC PEPTIDES USEFUL AS MODULATORS OF TNF ALPHA” (Bristol-Myers Squibb Company, priority 2023, published 2025)
pIC50: −log10 of the molar value. Starred links: 1 amine or outer side, 2 acyl side, 3 side chain; linkers in the order of their positions; H or OH if unused. Positions of bridges follow the written chain, without caps; N, C: chain ends. Non-standard residues stand in square brackets, D forms with d. Residues, ends and D or L forms follow the SMILES beside them. *: point of attachment. Bip(4'-NHCO-C6H4-3-CH2COOH) = N[C@@H](Cc1ccc(-c2ccc(NC(=O)c3cccc(CC(=O)O)c3)cc2)cc1)C(=O)O; Bip(4'-NHCO-C6H4-4-CH2COOH) = N[C@@H](Cc1ccc(-c2ccc(NC(=O)c3ccc(CC(=O)O)cc3)cc2)cc1)C(=O)O; dArg(Nω-CH2C6H4-3-CH2Gua) = N=C(N)NCc1cccc(CNC(=N)NCCC[C@@H](N)C(=O)O)c1; X21 = N=C(NCCC[C@@H](N[*:1])C(=O)[*:2])NC[C@H](O)[C@@H](O)[C@@H](O)CO; Bip(4'-NH) = O=C([C@H](Cc1ccc(-c2ccc(N[*:3])cc2)cc1)N[*:1])[*:2]; Indazole3carbonyl(1-CH2COOH) = O=C(O)Cn1nc(C(=O)*)c2ccccc21; Bip(4'-COOH) = N[C@@H](Cc1ccc(-c2ccc(C(=O)O)cc2)cc1)C(=O)O; Bip(4'-NHAc) = CC(=O)Nc1ccc(-c2ccc(C[C@H](N)C(=O)O)cc2)cc1; Indole3carbonyl(1-CH2COOH) = O=C(O)Cn1cc(C(=O)*)c2ccccc21; dArg(ω-Bn) = N=C(NCCC[C@@H](N)C(=O)O)NCc1ccccc1; Ala(morpholin-4-yl) = N[C@@H](CN1CCOCC1)C(=O)O; Benzoyl(3-OCH2COOH) = O=C(O)COc1cccc(C(=O)*)c1; Phe(3-CONH2) = NC(=O)c1cccc(C[C@H](N)C(=O)O)c1; Bip = N[C@@H](Cc1ccc(-c2ccccc2)cc1)C(=O)O; X13 = O=C([C@H](Cc1ccc[nH]1)N[*:1])[*:2]; 2Pal = N[C@@H](Cc1ccccn1)C(=O)O; 2Thi = N[C@@H](Cc1cccs1)C(=O)O; Cha = N[C@@H](CC1CCCCC1)C(=O)O; Tle = CC(C)(C)[C@H](N)C(=O)O; Sar = CNCC(=O)O

Each compound was assayed against TNFα (Homo sapiens, UniProt P01375) (assay: TNF-Induced HEK-Blue Assay). Conditions: not given.
Chain of TNFα (P01375 77-233 limits assumed): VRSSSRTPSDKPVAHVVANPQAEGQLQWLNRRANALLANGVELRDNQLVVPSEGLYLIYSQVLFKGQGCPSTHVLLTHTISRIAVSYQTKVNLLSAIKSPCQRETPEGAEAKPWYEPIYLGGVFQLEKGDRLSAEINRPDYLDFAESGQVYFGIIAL
Format: cell-based

Row | SMILES | pIC50
1 | CC[C@H](C)[C@@H]1NC(=O)[C@@H](CCCNC(=N)NCc2cccc(CNC(=N)N)c2)NC(=O)[C@H](CC(=O)O)NC(=O)[C@@H]2CCCN2C(=O)CN(C)C(=O)[C@H](Cc2ccc(-c3ccc(NC(=O)c4nn(CC(=O)O)c5ccccc45)cc3)cc2)NC(=O)[C@H](Cc2ccc(-c3ccccc3)cc2)NC(=O)[C@H](CN2CCOCC2)NC(=O)CSC[C@@H](C(=O)NCC(N)=O)NC(=O)[C@H](CC(C)C)NC(=O)[C@H](Cc2cnc[nH]2)NC(=O)[C@H](C(C)C)NC(=O)[C@@H]2CCCN2C1=O [Example 598] ({CH2CO}-[Ala(morpholin-4-yl)][Bip][Bip(4'-NH)](Indazole3carbonyl(1-CH2COOH))[Sar]PD[dArg(Nω-CH2C6H4-3-CH2Gua)]IPVHLCG-NH2; thioether N-13) | > 7.30
2 | CC[C@H](C)[C@@H]1NC(=O)[C@@H](CCCNC(=N)NC[C@H](O)[C@@H](O)[C@@H](O)CO)NC(=O)[C@H](CC(=O)O)NC(=O)[C@@H]2CCCN2C(=O)CN(C)C(=O)[C@H](Cc2ccc(-c3ccc(NC(=O)c4nn(CC(=O)O)c5ccccc45)cc3)cc2)NC(=O)[C@H](Cc2ccc(-c3ccccc3)cc2)NC(=O)[C@H](CN2CCOCC2)NC(=O)CSC[C@@H](C(=O)NCC(N)=O)NC(=O)[C@H](CC(C)C)NC(=O)[C@H](Cc2cnc[nH]2)NC(=O)[C@H](C(C)C)NC(=O)[C@@H]2CCCN2C1=O [Example 599] ({CH2CO}-[Ala(morpholin-4-yl)][Bip][Bip(4'-NH)](Indazole3carbonyl(1-CH2COOH))[Sar]PD[X21]IPVHLCG-NH2; thioether N-13) | > 7.30
3 | CC(C)C[C@@H]1NC(=O)[C@H](Cc2cccc(C(N)=O)c2)NC(=O)[C@H](C(C)C)NC(=O)[C@@H]2CCCN2C(=O)[C@H](C(C)C)NC(=O)[C@@H](CCCNC(=N)NCc2ccccc2)NC(=O)[C@H](CC(=O)O)NC(=O)[C@H](Cc2ccc(O)cc2)NC(=O)CN(C)C(=O)[C@H](Cc2ccc(-c3ccc(NC(=O)c4nn(CC(=O)O)c5ccccc45)cc3)cc2)NC(=O)[C@H](Cc2ccc(-c3ccccc3)cc2)NC(=O)[C@H](CN2CCOCC2)NC(=O)CSC[C@@H](C(=O)NCC(N)=O)NC1=O [Example 600] ({CH2CO}-[Ala(morpholin-4-yl)][Bip][Bip(4'-NH)](Indazole3carbonyl(1-CH2COOH))[Sar]YD[dArg(ω-Bn)]VPV[Phe(3-CONH2)]LCG-NH2; thioether N-13) | > 7.30
4 | CC(C)C[C@@H]1NC(=O)[C@H](Cc2cccc(C(N)=O)c2)NC(=O)[C@H](C(C)C)NC(=O)[C@@H]2CCCN2C(=O)[C@H](C(C)C)NC(=O)[C@@H](CCCNC(=N)NCc2ccccc2)NC(=O)[C@H](CC(=O)O)NC(=O)[C@H](Cc2ccc(O)cc2)NC(=O)CN(C)C(=O)[C@H](Cc2ccc(-c3ccc(NC(=O)c4cn(CC(=O)O)c5ccccc45)cc3)cc2)NC(=O)[C@H](Cc2ccc(-c3ccccc3)cc2)NC(=O)[C@H](CN2CCOCC2)NC(=O)CSC[C@@H](C(=O)NCC(N)=O)NC1=O [Example 601] ({CH2CO}-[Ala(morpholin-4-yl)][Bip][Bip(4'-NH)](Indole3carbonyl(1-CH2COOH))[Sar]YD[dArg(ω-Bn)]VPV[Phe(3-CONH2)]LCG-NH2; thioether N-13) | > 7.30

Same assay, conditions: HEK-Blue-CD40L cells, NF-kB-driven secreted alkaline phosphatase reporter; TNFα 0.5 ng/ml; 18 h; read-out: TNF induced HEK-Blue assay IC50 value

Row | SMILES | pIC50
5 | CC[C@H](C)[C@@H]1NC(=O)[C@@H](CCCNC(=N)N)NC(=O)[C@H](CC(=O)O)NC(=O)[C@H](Cc2cnc[nH]2)NC(=O)CN(C)C(=O)[C@H](Cc2ccc(-c3ccc(NC(=O)c4cccc(OCC(=O)O)c4)cc3)cc2)NC(=O)[C@H](Cc2ccc(-c3ccc(C(=O)O)cc3)cc2)NC(=O)[C@H](CC2CCCCC2)NC(=O)CSC[C@@H](C(=O)NCC(N)=O)NC(=O)[C@H](CC(C)C)NC(=O)[C@H](Cc2cccc(C(N)=O)c2)NC(=O)[C@H](C(C)C)NC(=O)[C@@H]2CCCN2C1=O [Example 586] ({CH2CO}-[Cha][Bip(4'-COOH)][Bip(4'-NH)](Benzoyl(3-OCH2COOH))[Sar]HD[dR]IPV[Phe(3-CONH2)]LCG-NH2; thioether N-13) | > 7.30
6 | CC(C)C[C@@H]1NC(=O)[C@H](Cc2cccc(C(N)=O)c2)NC(=O)[C@H](C(C)C)NC(=O)[C@@H]2CCCN2C(=O)[C@H](C(C)C)NC(=O)[C@@H](CCCNC(=N)N)NC(=O)[C@H](CC(=O)O)NC(=O)[C@H](Cc2cnc[nH]2)NC(=O)CN(C)C(=O)[C@H](Cc2ccc(-c3ccc(NC(=O)c4cccc(OCC(=O)O)c4)cc3)cc2)NC(=O)[C@H](Cc2ccc(-c3ccc(C(=O)O)cc3)cc2)NC(=O)[C@H](CC2CCCCC2)NC(=O)CSC[C@@H](C(=O)NCC(N)=O)NC1=O [Example 587] ({CH2CO}-[Cha][Bip(4'-COOH)][Bip(4'-NH)](Benzoyl(3-OCH2COOH))[Sar]HD[dR]VPV[Phe(3-CONH2)]LCG-NH2; thioether N-13) | > 7.30
7 | CC[C@H](C)[C@@H]1NC(=O)[C@@H](CCCNC(=N)N)NC(=O)[C@H](CC(=O)O)NC(=O)[C@H](Cc2cnc[nH]2)NC(=O)CN(C)C(=O)[C@H](Cc2ccc(-c3ccc(NC(=O)c4cccc(CC(=O)O)c4)cc3)cc2)NC(=O)[C@H](Cc2ccc(-c3ccc(C(=O)O)cc3)cc2)NC(=O)[C@H](CC2CCCCC2)NC(=O)CSC[C@@H](C(=O)NCC(N)=O)NC(=O)[C@H](CC(C)C)NC(=O)[C@H](Cc2cccc(C(N)=O)c2)NC(=O)[C@H](C(C)C)NC(=O)[C@@H]2CCCN2C1=O [Example 588] ({CH2CO}-[Cha][Bip(4'-COOH)][Bip(4'-NHCO-C6H4-3-CH2COOH)][Sar]HD[dR]IPV[Phe(3-CONH2)]LCG-NH2; thioether N-13) | > 7.30
8 | CC[C@H](C)[C@@H]1NC(=O)[C@@H](CCCNC(=N)N)NC(=O)[C@H](CC(=O)O)NC(=O)[C@H](Cc2cnc[nH]2)NC(=O)CN(C)C(=O)[C@H](Cc2ccc(-c3ccc(NC(=O)c4ccc(CC(=O)O)cc4)cc3)cc2)NC(=O)[C@H](Cc2ccc(-c3ccc(C(=O)O)cc3)cc2)NC(=O)[C@H](CC2CCCCC2)NC(=O)CSC[C@@H](C(=O)NCC(N)=O)NC(=O)[C@H](CC(C)C)NC(=O)[C@H](Cc2cccc(C(N)=O)c2)NC(=O)[C@H](C(C)C)NC(=O)[C@@H]2CCCN2C1=O [Example 589] ({CH2CO}-[Cha][Bip(4'-COOH)][Bip(4'-NHCO-C6H4-4-CH2COOH)][Sar]HD[dR]IPV[Phe(3-CONH2)]LCG-NH2; thioether N-13) | > 7.30
9 | CC(C)C[C@@H]1NC(=O)[C@H](Cc2cccc(C(N)=O)c2)NC(=O)[C@H](C(C)C)NC(=O)[C@@H]2CCCN2C(=O)[C@H](C(C)C)NC(=O)[C@@H](CCCNC(=N)N)NC(=O)[C@H](CC(=O)O)NC(=O)[C@H](Cc2cnc[nH]2)NC(=O)CN(C)C(=O)[C@H](Cc2ccc(-c3ccc(NC(=O)c4cccc(OCC(=O)O)c4)cc3)cc2)NC(=O)[C@H](Cc2ccc(-c3ccc(C(=O)O)cc3)cc2)NC(=O)[C@H](C(C)(C)C)NC(=O)CSC[C@@H](C(=O)NCC(N)=O)NC1=O [Example 590] ({CH2CO}-[Tle][Bip(4'-COOH)][Bip(4'-NH)](Benzoyl(3-OCH2COOH))[Sar]HD[dR]VPV[Phe(3-CONH2)]LCG-NH2; thioether N-13) | > 7.30
10 | CC[C@H](C)[C@@H]1NC(=O)[C@@H](CCCNC(=N)N)NC(=O)[C@H](CC(=O)O)NC(=O)[C@H](Cc2cnc[nH]2)NC(=O)CN(C)C(=O)[C@H](Cc2ccc(-c3ccc(NC(=O)c4cccc(OCC(=O)O)c4)cc3)cc2)NC(=O)[C@H](Cc2ccc(-c3ccc(C(=O)O)cc3)cc2)NC(=O)[C@H](C(C)(C)C)NC(=O)CSC[C@@H](C(=O)NCC(N)=O)NC(=O)[C@H](CC(C)C)NC(=O)[C@H](Cc2cccc(C(N)=O)c2)NC(=O)[C@H](C(C)C)NC(=O)[C@@H]2CCCN2C1=O [Example 591] ({CH2CO}-[Tle][Bip(4'-COOH)][Bip(4'-NH)](Benzoyl(3-OCH2COOH))[Sar]HD[dR]IPV[Phe(3-CONH2)]LCG-NH2; thioether N-13) | > 7.30
11 | CC(C)C[C@@H]1NC(=O)[C@H](Cc2ccc[nH]2)NC(=O)[C@H](C(C)C)NC(=O)[C@@H]2CCCN2C(=O)[C@H](C(C)C)NC(=O)[C@@H](CCCNC(=N)N)NC(=O)[C@H](CC(=O)O)NC(=O)[C@H](Cc2cnc[nH]2)NC(=O)CN(C)C(=O)[C@H](Cc2ccc(-c3ccc(NC(=O)c4cccc(CC(=O)O)c4)cc3)cc2)NC(=O)[C@H](Cc2ccc(-c3ccc(C(=O)O)cc3)cc2)NC(=O)[C@H](C(C)(C)C)NC(=O)CSC[C@@H](C(=O)NCC(N)=O)NC1=O [Example 597] ({CH2CO}-[Tle][Bip(4'-COOH)][Bip(4'-NHCO-C6H4-3-CH2COOH)][Sar]HD[dR]VPV[X13]LCG-NH2; thioether N-13) | > 7.30
12 | CC(C)C[C@@H]1NC(=O)[C@H](Cc2cccc(C(N)=O)c2)NC(=O)[C@H](C(C)C)NC(=O)[C@@H]2CCCN2C(=O)[C@H](C(C)C)NC(=O)[C@@H](CCCNC(=N)NCc2ccccc2)NC(=O)[C@H](CC(=O)O)NC(=O)[C@H](Cc2ccc(O)cc2)NC(=O)CN(C)C(=O)[C@H](Cc2ccc(-c3ccc(NC(=O)c4ccc(CC(=O)O)cc4)cc3)cc2)NC(=O)[C@H](Cc2ccc(-c3ccccc3)cc2)NC(=O)[C@H](CN2CCOCC2)NC(=O)CSC[C@@H](C(=O)NCC(N)=O)NC1=O [Example 602] ({CH2CO}-[Ala(morpholin-4-yl)][Bip][Bip(4'-NHCO-C6H4-4-CH2COOH)][Sar]YD[dArg(ω-Bn)]VPV[Phe(3-CONH2)]LCG-NH2; thioether N-13) | > 7.30
13 | CC(C)C[C@@H]1NC(=O)[C@H](Cc2cccc(C(N)=O)c2)NC(=O)[C@H](C(C)C)NC(=O)[C@@H]2CCCN2C(=O)[C@H](C(C)C)NC(=O)[C@@H](CCCNC(=N)NCc2ccccc2)NC(=O)[C@H](CC(=O)O)NC(=O)[C@H](Cc2ccc(O)cc2)NC(=O)CN(C)C(=O)[C@H](Cc2ccc(-c3ccc(NC(=O)c4cccc(CC(=O)O)c4)cc3)cc2)NC(=O)[C@H](Cc2ccc(-c3ccccc3)cc2)NC(=O)[C@H](CN2CCOCC2)NC(=O)CSC[C@@H](C(=O)NCC(N)=O)NC1=O [Example 603] ({CH2CO}-[Ala(morpholin-4-yl)][Bip][Bip(4'-NHCO-C6H4-3-CH2COOH)][Sar]YD[dArg(ω-Bn)]VPV[Phe(3-CONH2)]LCG-NH2; thioether N-13) | > 7.30
14 | CC[C@H](C)[C@@H]1NC(=O)[C@@H](CCCNC(=N)N)NC(=O)[C@H](CC(=O)O)NC(=O)[C@H](Cc2ccccn2)NC(=O)CN(C)C(=O)[C@H](Cc2ccc(-c3ccc(NC(C)=O)cc3)cc2)NC(=O)[C@H](Cc2ccc(-c3ccccc3)cc2)NC(=O)[C@H](CN2CCOCC2)NC(=O)CSC[C@@H](C(=O)NCC(N)=O)NC(=O)[C@H](CC(C)C)NC(=O)[C@H](Cc2cccs2)NC(=O)[C@H](C(C)C)NC(=O)[C@@H]2CCCN2C1=O [Example 604] ({CH2CO}-[Ala(morpholin-4-yl)][Bip][Bip(4'-NHAc)][Sar][2Pal]D[dR]IPV[2Thi]LCG-NH2; thioether N-13) | > 7.30
